ChEMBL document CHEMBL4393686, “InCl3 mediated heteroarylation of indoles and their derivatization via CH activation strategy: Discovery of 2-(1H-indol-3-yl)-quinoxaline derivatives as a new class of PDE4B selective inhibitors for arthritis and/or multiple sclerosis” (Eur J Med Chem, 2019)
The source made the active and inactive calls. The rule behind the calls is not given here.

Columns and labels:
[1] = target: 3',5'-cyclic-AMP phosphodiesterase 4B (Homo sapiens, UniProt Q07343); experiment: Inhibition of recombinant His-tagged human PDE4B expressed in Sf9 cells using cAMP as substrate preincubated with enzyme for 15 mins followed by substrate addition and incubated for 1 hr by PDELight HTS cAMP phosphodiesterase Kit based luminometry
[2] = target: PDE4C (Homo sapiens, UniProt Q08493); experiment: Inhibition of PDE4C (unknown origin) at 100 uM using cAMP as substrate preincubated with enzyme for 15 mins followed by substrate addition and incubated for 1 hr by PDELight HTS cAMP phosphodiesterase Kit based luminometry relative to control; conditions: probe cAMP
[3] = organism: Homo sapiens; experiment: Selectivity for recombinant His-tagged human PDE4B over PDE4C (unknown origin)
[4] = target: Dual specificity calcium/calmodulin-dependent 3',5'-cyclic nucleotide phosphodiesterase 1B (Homo sapiens) (UniProt Q01064); experiment: Inhibition of recombinant N-terminal GST tagged full length human PDE1B expressed in Sf9 cells using FAM-cAMP as substrate at 10 uM incubated for 60 mins by fluorescence plate reader analysis
[5] = target: Dual specificity calcium/calmodulin-dependent 3',5'-cyclic nucleotide phosphodiesterase 1C (Homo sapiens) (UniProt Q14123); experiment: Inhibition of recombinant N-terminal GST tagged human PDE1C (2 to 634 aa) expressed in Sf9 cells at 10 uM using FAM-cAMP as substrate incubated for 60 mins by fluorescence plate reader analysis
[6] = target: cGMP-inhibited 3',5'-cyclic phosphodiesterase 3A (Homo sapiens) (UniProt Q14432); experiment: Inhibition of recombinant PDE3A (unknown origin) using FAM-cAMP as substrate at 10 uM incubated for 60 mins by fluorescence plate reader analysis
[7] = target: cGMP-specific 3',5'-cyclic phosphodiesterase (Homo sapiens) (UniProt O76074); experiment: Inhibition of recombinant N-terminal GST-tagged full length human PDE5A1 expressed in Sf9 cells using FAM-cGMP as substrate at 10 uM incubated for 60 mins by fluorescence plate reader analysis
[8] = target: High affinity 3',5'-cyclic-AMP phosphodiesterase 7A (Homo sapiens) (UniProt Q13946); experiment: Inhibition of recombinant N-terminal GST tagged human PDE7A1 (122-end aa) expressed in Sf9 cells using FAM-cAMP as substrate at 10 uM incubated for 60 mins by fluorescence plate reader analysis
[9] = target: 3',5'-cyclic-AMP phosphodiesterase 7B (Homo sapiens) (UniProt Q9NP56); experiment: Inhibition of recombinant N-terminal GST tagged and C-terminal His-tagged human PDE7B (109-ens aa) expressed in Sf9 cells using FAM-cAMP as substrate at 10 uM incubated for 60 mins by fluorescence plate reader analysis
[10] = target: cAMP and cAMP-inhibited cGMP 3',5'-cyclic phosphodiesterase 10A (Homo sapiens) (UniProt Q9Y233); experiment: Inhibition of recombinant -N-terminal GST-tagged human PDE10A1 (aa 2-789) expressed in Sf9 cells using FAM-cAMP as substrate at 10 uM incubated for 60 mins by fluorescence plate reader analysis
[11] = target: Dual 3',5'-cyclic-AMP and -GMP phosphodiesterase 11A (Homo sapiens) (UniProt Q9HCR9); experiment: Inhibition of recombinant N-terminal GST-tagged full length human PDE11A4 expressed in Sf9 cells using FAM-cAMP as substrate at 10 uM incubated for 60 mins by fluorescence plate reader analysis
[12] = Metabolic stability in rat liver microsomes assessed as compound remaining at 5 uM incubated for 30 mins in presence of air measured after 60 mins by LC-MS/MS analysis; format: ADME, Microsome; conditions: read-out: Stability
[13] = Initial plasma concentration in BALB/c mouse at 10 mg/kg, iv measured for 24 hrs post dose by LC-MS/MS analysis; format: ADME, organism-based
[14] = AUC (0 to extrap) in BALB/c mouse at 10 mg/kg, iv measured for 24 hrs post dose by LC-MS/MS analysis; format: ADME, organism-based; conditions: in vivo
[15] = Volume of distribution at steady state in BALB/c mouse at 10 mg/kg, iv measured for 24 hrs post dose by LC-MS/MS analysis; format: ADME, organism-based; conditions: in vivo, read-out: Vdss
[16] = Clearance in BALB/c mouse at 10 mg/kg, iv measured for 24 hrs post dose by LC-MS/MS analysis; format: ADME, organism-based; conditions: in vivo
[17] = MRTlast in BALB/c mouse at 10 mg/kg, iv measured for 24 hrs post dose by LC-MS/MS analysis; format: ADME, organism-based; conditions: in vivo
[18] = tested on: Danio rerio; experiment: Anti-sclerotic activity in MOG/CFA-induced zebra fish EAE model assessed as reduction in lesion score at 3 to 30 mg/kg, ip measured for 7 days; format: functional, organism-based
[19] = tested on: Rattus norvegicus; experiment: Analgesic activity in complete Freund's adjuvant-induced Wistar rat arthritis model assessed as increase in reaction time at 30 mg/kg, ip administered from 11th day 20th day with last dose administered 30 mins prior to test by hot-plate test; format: functional, organism-based
[20] = tested on: Rattus norvegicus; experiment: Antiinflammatory activity in complete Freund's adjuvant-induced Wistar rat arthritis model assessed as reduction in TNFalpha expression in serum at 30 mg/kg, ip administered from 11th day to 20th day by ELISA; format: functional, organism-based
[21] = tested on: Rattus norvegicus; experiment: Antiinflammatory activity in complete Freund's adjuvant-induced Wistar rat arthritis model assessed as reduction in iNOS mRNA expression at 30 mg/kg, ip administered from 11th day to 20th day by qPCR analysis; format: functional, organism-based
[22] = Cardiotoxicity in zebrafish embryos assessed as heart rate at 1 to 100 uM; format: toxicity, Danio rerio
[23] = Toxicity in zebrafish embryos assessed as teratogenicity score at 1 to 100 uM incubated for 5 dpf; set-up: species or system Danio rerio; conditions: in vivo
[24] = Hepatotoxicity in zebrafish embryos assessed as liver size at 1 to 100 uM incubated for 7 dpf; format: toxicity, Danio rerio; conditions: in vivo
[25] = Hepatotoxicity in zebrafish embryos assessed as yolk sac retention at 1 to 100 uM incubated for 7 dpf; format: toxicity, Danio rerio; conditions: in vivo
[26] = Toxicity in zebrafish embryo; set-up: species or system Danio rerio; conditions: in vivo
[27] = Toxicity in zebrafish embryo assessed as change in body shape at 1 to 100 uM; set-up: species or system Danio rerio; conditions: in vivo
[28] = Toxicity in zebrafish embryo assessed as effect in somite formation at 1 to 100 uM; set-up: species or system Danio rerio; conditions: in vivo
[29] = Toxicity in zebrafish embryo assessed as effect in brain formation at 1 to 100 uM; format: tissue-based, Danio rerio; conditions: in vivo
[30] = Toxicity in zebrafish embryo assessed as effect in upper jaw formation at 1 to 100 uM; set-up: species or system Danio rerio; conditions: in vivo
[31] = Toxicity in zebrafish embryo assessed as effect in heart formation at 1 to 100 uM; format: tissue-based, Danio rerio; conditions: in vivo
[32] = Toxicity in zebrafish embryo assessed as effect in lower jaw formation at 1 to 100 uM; set-up: species or system Danio rerio; conditions: in vivo
[33] = Toxicity in zebrafish embryo assessed as effect in liver formation at 1 to 100 uM; set-up: species or system Danio rerio; conditions: in vivo
[34] = tested on: Danio rerio; experiment: Anti-sclerotic activity in MOG/CFA-induced zebra fish EAE model assessed as prevention of disease progression at 3 to 30 mg/kg, ip measured for 7 days; format: functional, organism-based
[35] = tested on: Rattus norvegicus; experiment: Antiinflammatory activity in complete Freund's adjuvant-induced Wistar rat arthritis model assessed as reduction in TNFalpha mRNA expression at 30 mg/kg, ip administered from 11th day to 20th day by qPCR analysis; format: functional, organism-based

Sequence of PDE4C (Q08493 whole entry): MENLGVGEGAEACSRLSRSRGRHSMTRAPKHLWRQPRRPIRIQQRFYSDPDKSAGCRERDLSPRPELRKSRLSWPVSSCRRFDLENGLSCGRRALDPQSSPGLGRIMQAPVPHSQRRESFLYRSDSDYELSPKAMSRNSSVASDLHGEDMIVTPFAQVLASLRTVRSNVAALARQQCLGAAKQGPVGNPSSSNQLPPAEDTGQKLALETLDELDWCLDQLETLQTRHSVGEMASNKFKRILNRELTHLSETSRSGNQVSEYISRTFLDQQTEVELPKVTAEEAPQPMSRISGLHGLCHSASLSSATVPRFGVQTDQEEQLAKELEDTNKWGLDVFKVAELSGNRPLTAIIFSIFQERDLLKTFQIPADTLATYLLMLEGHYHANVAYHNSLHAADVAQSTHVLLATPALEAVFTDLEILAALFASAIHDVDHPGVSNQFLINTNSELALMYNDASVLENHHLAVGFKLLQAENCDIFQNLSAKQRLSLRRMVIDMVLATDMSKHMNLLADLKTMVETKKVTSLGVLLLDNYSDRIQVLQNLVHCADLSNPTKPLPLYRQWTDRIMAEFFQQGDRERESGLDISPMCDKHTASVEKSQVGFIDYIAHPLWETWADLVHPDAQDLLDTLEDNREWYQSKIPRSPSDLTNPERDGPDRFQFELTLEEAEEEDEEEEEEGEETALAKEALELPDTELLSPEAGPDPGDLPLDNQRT
Sequence of Dual specificity calcium/calmodulin-dependent 3',5'-cyclic nucleotide phosphodiesterase 1C (Homo sapiens) (Q14123 whole entry, the tested form may be a part): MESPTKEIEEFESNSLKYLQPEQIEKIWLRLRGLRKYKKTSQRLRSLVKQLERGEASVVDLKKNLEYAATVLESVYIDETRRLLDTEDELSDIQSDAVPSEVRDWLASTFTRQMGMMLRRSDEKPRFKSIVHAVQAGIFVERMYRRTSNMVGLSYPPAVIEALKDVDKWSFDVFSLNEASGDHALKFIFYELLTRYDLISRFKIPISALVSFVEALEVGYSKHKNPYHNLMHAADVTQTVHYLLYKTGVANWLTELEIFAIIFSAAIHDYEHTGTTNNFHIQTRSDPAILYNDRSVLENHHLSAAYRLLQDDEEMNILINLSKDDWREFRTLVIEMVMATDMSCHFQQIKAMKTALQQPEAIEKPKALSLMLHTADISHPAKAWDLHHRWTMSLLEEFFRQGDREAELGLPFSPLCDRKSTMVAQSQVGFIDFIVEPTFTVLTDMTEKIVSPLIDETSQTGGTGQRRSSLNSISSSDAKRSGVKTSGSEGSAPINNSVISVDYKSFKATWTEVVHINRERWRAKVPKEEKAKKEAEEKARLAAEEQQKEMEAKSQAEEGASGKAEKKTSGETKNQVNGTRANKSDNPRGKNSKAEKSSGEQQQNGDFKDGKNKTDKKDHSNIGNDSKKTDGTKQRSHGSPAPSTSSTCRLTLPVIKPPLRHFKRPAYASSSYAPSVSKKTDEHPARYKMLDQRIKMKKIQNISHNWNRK
Sequence of Dual 3',5'-cyclic-AMP and -GMP phosphodiesterase 11A (Homo sapiens) (Q9HCR9 whole entry, looked up): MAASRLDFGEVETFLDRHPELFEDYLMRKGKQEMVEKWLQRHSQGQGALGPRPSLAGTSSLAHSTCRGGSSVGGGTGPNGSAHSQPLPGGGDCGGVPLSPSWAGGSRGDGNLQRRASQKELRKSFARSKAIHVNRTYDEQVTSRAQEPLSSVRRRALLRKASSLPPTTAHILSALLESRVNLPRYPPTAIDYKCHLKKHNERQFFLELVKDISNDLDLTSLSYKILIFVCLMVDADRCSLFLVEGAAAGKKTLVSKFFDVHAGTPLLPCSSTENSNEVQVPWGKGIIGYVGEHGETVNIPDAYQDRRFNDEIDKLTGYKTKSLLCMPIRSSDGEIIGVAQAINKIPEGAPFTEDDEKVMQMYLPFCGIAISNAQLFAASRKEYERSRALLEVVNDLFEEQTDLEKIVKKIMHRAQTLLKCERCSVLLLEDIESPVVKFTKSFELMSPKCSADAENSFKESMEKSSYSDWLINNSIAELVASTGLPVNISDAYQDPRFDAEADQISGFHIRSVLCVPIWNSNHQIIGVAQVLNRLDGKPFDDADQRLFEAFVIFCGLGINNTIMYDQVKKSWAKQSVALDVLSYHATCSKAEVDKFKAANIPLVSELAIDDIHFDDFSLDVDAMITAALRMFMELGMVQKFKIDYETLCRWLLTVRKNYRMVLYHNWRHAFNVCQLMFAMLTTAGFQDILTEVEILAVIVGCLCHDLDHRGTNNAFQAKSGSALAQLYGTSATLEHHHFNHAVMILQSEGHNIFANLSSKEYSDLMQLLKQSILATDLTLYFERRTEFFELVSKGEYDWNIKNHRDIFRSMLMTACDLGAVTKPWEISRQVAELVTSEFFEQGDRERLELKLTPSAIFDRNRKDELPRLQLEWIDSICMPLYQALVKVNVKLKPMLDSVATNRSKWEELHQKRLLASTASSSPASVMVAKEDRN
Sequence of cGMP-inhibited 3',5'-cyclic phosphodiesterase 3A (Homo sapiens) (Q14432 whole entry): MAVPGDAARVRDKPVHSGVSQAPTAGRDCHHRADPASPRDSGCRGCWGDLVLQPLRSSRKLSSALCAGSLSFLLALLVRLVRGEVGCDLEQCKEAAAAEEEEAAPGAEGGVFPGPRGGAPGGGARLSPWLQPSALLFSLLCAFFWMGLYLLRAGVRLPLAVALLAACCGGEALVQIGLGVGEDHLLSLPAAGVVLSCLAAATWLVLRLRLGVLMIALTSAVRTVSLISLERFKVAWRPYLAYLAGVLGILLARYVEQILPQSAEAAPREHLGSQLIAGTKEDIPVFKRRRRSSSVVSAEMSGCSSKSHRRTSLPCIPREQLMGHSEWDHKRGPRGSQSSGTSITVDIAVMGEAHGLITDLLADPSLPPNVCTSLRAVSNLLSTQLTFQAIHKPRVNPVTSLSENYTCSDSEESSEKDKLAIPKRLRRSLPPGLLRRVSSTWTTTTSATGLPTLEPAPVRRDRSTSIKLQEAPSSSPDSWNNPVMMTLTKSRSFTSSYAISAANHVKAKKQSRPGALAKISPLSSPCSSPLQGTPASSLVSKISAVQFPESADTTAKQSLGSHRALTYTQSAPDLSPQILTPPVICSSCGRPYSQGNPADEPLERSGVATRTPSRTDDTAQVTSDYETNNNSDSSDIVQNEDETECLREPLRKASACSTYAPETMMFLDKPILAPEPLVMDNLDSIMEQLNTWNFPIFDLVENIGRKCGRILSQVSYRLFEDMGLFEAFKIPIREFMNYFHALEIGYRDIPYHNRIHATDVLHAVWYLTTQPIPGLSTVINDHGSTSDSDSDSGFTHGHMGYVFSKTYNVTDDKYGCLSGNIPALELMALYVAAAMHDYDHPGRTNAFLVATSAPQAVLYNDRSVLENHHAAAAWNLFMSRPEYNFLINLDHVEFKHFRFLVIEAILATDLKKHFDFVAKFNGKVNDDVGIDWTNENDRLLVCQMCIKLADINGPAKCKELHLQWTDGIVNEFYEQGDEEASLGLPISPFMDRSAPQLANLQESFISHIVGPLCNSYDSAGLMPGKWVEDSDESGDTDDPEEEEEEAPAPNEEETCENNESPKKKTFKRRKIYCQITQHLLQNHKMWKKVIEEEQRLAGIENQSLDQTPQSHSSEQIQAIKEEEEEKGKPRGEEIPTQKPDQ
Sequence of High affinity 3',5'-cyclic-AMP phosphodiesterase 7A (Homo sapiens) (Q13946 whole entry): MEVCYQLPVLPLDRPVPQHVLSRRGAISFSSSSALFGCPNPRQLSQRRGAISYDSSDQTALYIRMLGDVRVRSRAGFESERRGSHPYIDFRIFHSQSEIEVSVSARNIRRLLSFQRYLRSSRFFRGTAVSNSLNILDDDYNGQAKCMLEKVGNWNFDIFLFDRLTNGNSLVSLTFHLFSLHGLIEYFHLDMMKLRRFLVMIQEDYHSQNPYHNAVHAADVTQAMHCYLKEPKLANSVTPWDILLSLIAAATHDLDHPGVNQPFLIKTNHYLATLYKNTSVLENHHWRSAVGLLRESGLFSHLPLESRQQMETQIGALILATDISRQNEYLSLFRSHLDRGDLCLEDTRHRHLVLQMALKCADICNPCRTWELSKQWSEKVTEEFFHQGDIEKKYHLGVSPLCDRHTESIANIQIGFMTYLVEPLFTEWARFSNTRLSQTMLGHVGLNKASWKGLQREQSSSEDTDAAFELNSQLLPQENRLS
Sequence of 3',5'-cyclic-AMP phosphodiesterase 4B (Q07343 whole entry): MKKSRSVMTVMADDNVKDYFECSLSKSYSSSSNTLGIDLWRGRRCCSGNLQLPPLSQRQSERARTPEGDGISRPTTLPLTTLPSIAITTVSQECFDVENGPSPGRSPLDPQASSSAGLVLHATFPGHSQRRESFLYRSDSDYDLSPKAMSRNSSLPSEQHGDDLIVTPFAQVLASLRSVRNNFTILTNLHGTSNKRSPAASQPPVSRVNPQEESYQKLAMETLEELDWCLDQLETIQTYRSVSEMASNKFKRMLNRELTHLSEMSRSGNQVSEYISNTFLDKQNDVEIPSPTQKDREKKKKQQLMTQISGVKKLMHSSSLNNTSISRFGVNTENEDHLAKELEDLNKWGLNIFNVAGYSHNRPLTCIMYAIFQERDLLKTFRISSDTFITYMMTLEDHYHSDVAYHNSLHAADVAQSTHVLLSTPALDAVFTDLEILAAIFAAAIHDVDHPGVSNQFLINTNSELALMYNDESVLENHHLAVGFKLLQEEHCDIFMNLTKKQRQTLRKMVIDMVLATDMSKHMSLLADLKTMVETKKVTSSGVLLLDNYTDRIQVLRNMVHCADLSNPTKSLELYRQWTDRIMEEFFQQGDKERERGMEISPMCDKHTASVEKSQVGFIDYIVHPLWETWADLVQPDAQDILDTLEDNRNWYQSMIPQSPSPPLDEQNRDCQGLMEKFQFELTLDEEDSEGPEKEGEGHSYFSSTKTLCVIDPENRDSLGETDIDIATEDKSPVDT

With C=CCn1cc(-c2nc3ccccc3nc2Cl)c2cc(OC)ccc21 the IC50 [1] was 390 nM, the inhibition at 1 h, 100 µM [2] was 20 to 30% and the Selectivity ratio [3] was greater than 250. For the same compound, the inhibition [4] was 23%, the inhibition [5] was 39% and the inhibition [6] was 1%. For the same compound, the inhibition [7] was 2%, the inhibition [8] was 3% and the inhibition [9] was 2%. The inhibition [10] was 13%, the inhibition [11] was 7% and the remaining at 60 min, 5 µM [12] was 42.2%. For the same compound, the C0 at 24 h [13] was 5060 ng/mL, the “%AUCextra” value [14] was 6.23% and the Vd [15] was 4.46 L/kg. For the same compound, the clearance [16] was 143 mL/min/kg, the MRT last at 24 h [17] was 21.6 min and the inhibition [18] was “inactive”. For the same compound, the Activity [19] was “Active”, the inhibition [20] was “Active” and the inhibition [21] was “Active”. The Activity [22] was “Non-Toxic”, the Activity [23] was “Non-Toxic” and the Activity [24] was “Non-Toxic”. For the same compound, the Activity [25] was “Non-Toxic”, the NOAEL [26] was 30 µM and the Activity [27] was “Non-Toxic”. The Activity [28] was “Non-Toxic”, the Activity [29] was “Non-Toxic” and the Activity [30] was “Toxic”. The Activity [31] was “Non-Toxic”, the Activity [32] was “Toxic” and the Activity [33] was “Non-Toxic”. The Activity [34] was “Active” and the inhibition [35] was “Active”.
